In ChEMBL document CHEMBL2203268, “Resveratrol as a kcat type inhibitor for tyrosinase: potentiated melanogenesis inhibitor” (Bioorg Med Chem, 2012):
Activity calls are given as the source filed them. No cut-off for these calls is given here.

How the values were obtained:
[1] = tested on: B16-F10; assay: Cytotoxicity against mouse B16F10 cells assessed as suppression of cell viability at 12.5 to 200 uM after 72 hrs; assay type: cell-based; details: b16-f10, 72 h
[2] = tested on: B16-F10; assay: Cytotoxicity against mouse B16F10 cells assessed as suppression of cell viability at 400 uM after 72 hrs; assay type: cell-based; details: b16-f10, 72 h
[3] = tested on: B16-F10; assay: Antimelanogenic activity in mouse assessed as cellular melanin content B16F10 cells after 72 hrs by spectrophotometric analysis; assay type: functional, cell-based
[4] = tested on: tyrosinase; assay: Drug metabolism assessed as oxidation of the compound at 100 uM after 60 mins by HPLC analysis in the presence of tyrosinase; assay type: physicochemical; details: read-out: Drug metabolism
[5] = tested on: B16-F10; assay: Antimelanogenic activity in mouse assessed as cellular melanin content B16F10 cells at 200 uM after 72 hrs spectrophotometric analysis; assay type: functional, cell-based
[6] = molecular target: T1, Tyrosinase (Agaricus bisporus) (UniProt O42713); assay: Activation of mushroom tyrosinase assessed as L-DOPA oxidation at 100 uM after 30 mins by UV-vis spectrophotometric analysis
T1 sequence (whole entry): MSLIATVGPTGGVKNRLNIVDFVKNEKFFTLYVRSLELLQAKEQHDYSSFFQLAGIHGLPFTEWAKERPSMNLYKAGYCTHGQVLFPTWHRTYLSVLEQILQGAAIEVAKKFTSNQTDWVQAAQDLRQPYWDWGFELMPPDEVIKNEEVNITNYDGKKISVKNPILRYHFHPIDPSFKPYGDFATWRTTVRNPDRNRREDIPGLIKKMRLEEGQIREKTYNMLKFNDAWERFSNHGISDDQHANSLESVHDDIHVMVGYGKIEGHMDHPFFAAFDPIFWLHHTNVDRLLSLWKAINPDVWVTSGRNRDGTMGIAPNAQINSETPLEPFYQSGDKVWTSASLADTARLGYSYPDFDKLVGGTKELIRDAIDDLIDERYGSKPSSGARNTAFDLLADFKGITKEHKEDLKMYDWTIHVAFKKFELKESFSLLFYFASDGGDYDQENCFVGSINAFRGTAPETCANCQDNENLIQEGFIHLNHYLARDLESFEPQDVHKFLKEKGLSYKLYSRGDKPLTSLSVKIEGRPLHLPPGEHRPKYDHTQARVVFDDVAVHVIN

[7] = molecular target: T1, Tyrosinase (Agaricus bisporus); assay: Activation of mushroom tyrosinase assessed as oxygen consumption using L-tyrosine substrate after 60 mins
[8] = molecular target: T1, Tyrosinase (Agaricus bisporus); assay: Inhibition of mushroom tyrosinase-mediated L-DOPA oxidation at 100 uM after 30 mins by UV-vis spectrophotometric analysis
[9] = Drug metabolism assessed as oxidation of the compound at 100 uM after 10 mins by UV-vis spectrophotometric analysis in the presence of tyrosinase; assay type: physicochemical
[10] = molecular target: T1, Tyrosinase (Agaricus bisporus); assay: Activation of mushroom tyrosinase assessed as dopachrome formation after 60 mins by UV-vis spectrophotometric analysis
[11] = molecular target: T1, Tyrosinase (Agaricus bisporus); assay: Inhibition of mushroom tyrosinase-mediated oxygen consumption at 100 uM using L-tyrosine substrate incubated 30 mins prior to substrate addition measured after 60 mins
[12] = tested on: B16-F10; assay: Cytotoxicity against mouse B16F10 cells assessed as suppression of cell viability after 72 hrs; assay type: cell-based
[13] = molecular target: T1, Tyrosinase (Agaricus bisporus); assay: Inhibition of mushroom tyrosinase-mediated L-tyrosine oxidation assessed as decrease in dopachrome formation at 100 uM after 60 mins by UV-vis spectrophotometric analysis
[14] = molecular target: T1, Tyrosinase (Agaricus bisporus); assay: Inhibition of mushroom tyrosinase assessed as L-DOPA oxidation at 100 uM incubated 30 mins prior to substrate addition measured after 60 mins by UV-vis spectrophotometric analysis
[15] = molecular target: T1, Tyrosinase (Agaricus bisporus); assay: Inhibition of mushroom tyrosinase-mediated oxygen consumption using L-DOPA substrate at 100 uM after 30 mins
[16] = tested on: B16-F10; assay: Cytotoxicity against mouse B16F10 cells assessed as suppression of cell viability at 200 uM after 72 hrs; assay type: cell-based; details: b16-f10, 72 h
[17] = molecular target: T1, Tyrosinase (Agaricus bisporus); assay: Inhibition of mushroom tyrosinase-mediated L-tyrosine oxidation after 60 mins by HPLC analysis
[18] = molecular target: T1, Tyrosinase (Agaricus bisporus); assay: Inhibition of mushroom tyrosinase assessed as L-DOPA oxidation HPLC analysis
[19] = molecular target: T1, Tyrosinase (Agaricus bisporus); assay: Inhibition of mushroom tyrosinase-mediated L-DOPA oxidation assessed as recovery of enzymatic activity at 100 uM preincubated for 30 mins by HPLC analysis in the presence of 200 uM of L-cysteine
[20] = Drug metabolism assessed as oxidation of the compound at 100 uM after 30 mins by HPLC analysis in the presence of tyrosinase; assay type: physicochemical; details: 0.5 h
[21] = molecular target: T1, Tyrosinase (Agaricus bisporus); assay: Inhibition of mushroom tyrosinase assessed as L-tyrosine oxidation at 100 uM incubated 30 mins prior to substrate addition measured after 60 mins by UV-vis spectrophotometric analysis
[22] = molecular target: T1, Tyrosinase (Agaricus bisporus); assay: Inhibition of mushroom tyrosinase-mediated oxygen consumption using L-tyrosine substrate after 60 mins
[23] = molecular target: T1, Tyrosinase (Agaricus bisporus); assay: Inhibition of mushroom tyrosinase-mediated L-DOPA oxidation assessed as decrease in dopachrome formation at 100 uM preincubated for 30 mins by HPLC analysis
[24] = molecular target: T1, Tyrosinase (Agaricus bisporus); assay: Inhibition of mushroom tyrosinase-mediated dopachrome formation after 60 mins by UV-vis spectrophotometric analysis
[25] = molecular target: T1, Tyrosinase (Agaricus bisporus); assay: Inhibition of mushroom tyrosinase-mediated L-tyrosine oxidation at 100 uM after 60 mins by HPLC analysis
[26] = molecular target: T1, Tyrosinase (Agaricus bisporus); assay: Inhibition of mushroom tyrosinase-mediated L-DOPA oxidation assessed as decrease in dopachrome formation at 100 uM incubated 30 mins prior to substrate addition measured after 60 mins by UV-vis spectrophotometric analysis
[27] = Drug metabolism assessed as oxidation of the compound at 100 uM by HPLC analysis in the presence of tyrosinase; assay type: physicochemical; details: TDE = time-dependent effect
[28] = molecular target: T1, Tyrosinase (Agaricus bisporus); assay: Inhibition of mushroom tyrosinase-mediated oxygen consumption at 100 uM using L-DOPA substrate incubated 30 mins prior to substrate addition measured after 60 mins

SMILES: Oc1cc(O)cc(/C=C/c2ccccc2)c1 [PINOSYLVIN]
- Activity [1]: Non-toxic
- Activity [2]: Toxic

SMILES: Oc1cc(O)cc(/C=C\c2ccccc2)c1
- Activity [3]: inactive
- Activity [1]: Non-toxic

SMILES: Oc1ccc(/C=C/c2cc(O)cc(O)c2)cc1 [RESVERATROL]
- metabolised at 1 h, 100 µM [4]: 90%
- Activity [3]: Dose-dependent effect
- Activity [5]: Active
- Activity [6]: inactive
- Activity [7]: Dose-dependent effect
- inhibition [8]: inactive
- Drug metabolism [9]: Active
- Activity [10]: Dose-dependent effect
- inhibition [11]: Active
- IC50 ([12]; Mus musculus, B16-F10, 72 h): > 200 µM
- Activity ([12]; mouse, b16-f10, 72 h): Dose-dependent effect
- inhibition [13]: Active
- inhibition [14]: 90%
- inhibition [15]: inactive
- Activity [16]: 10%
- inhibition [17]: Dose-dependent effect
- Activity [1]: Non-toxic
- inhibition [18]: Active
- inhibition [19]: 20%
- Drug metabolism [20]: Active
- inhibition [21]: Active
- inhibition [22]: inactive
- inhibition [23]: 10%
- inhibition [24]: inactive
- inhibition [25]: Active
- inhibition [26]: Active
- Drug metabolism [27]: tde
- inhibition [28]: Active

SMILES: Oc1cc(O)cc(CCc2ccccc2)c1 [DIHYDROPINOSYLVIN]
- Activity [3]: inactive
- Activity [1]: Non-toxic
